Assay results reported in paper PMC9332833 (Cancers, 2022).

Experiments:
HUVEC = system: HUVEC; design: method as in PMID 26902600, PMID 31487824; conditions: cited from earlier work
[1] = system: CD34+ cells from CML patients; assay: Annexin V apoptosis assay, CML CD34+ cells; assay type: cell-based; conditions: Homo sapiens, 24 h
Protocol: Blood samples were taken (venipuncture, EDTA-K2 Vacutainer tubes, Becton Dickinson, Franklin Lakes, NJ, USA) from 8 chronic phase CML patients (CML1–CML8; 4 men and 4 women, aged 39–79) diagnosed at the Department of Hematology, University Clinical Center, Medical University of Warsaw, following their written consent. The diagnosis was carried out by qualified clinical staff based on an interview, blood parameters and molecular tests detecting BCR-ABL1 (transcript b3a2). Peripheral blood mononuclear cells were immediately isolated from the fresh blood sample using standard protocol (Supplementary Methods). […]
Cells were seeded in 6-well plates (K562 or K562-MDR1) or in 24-well plates (CD34^+ cells). […] After a further 24 h, cells were stained using the Annexin V-FITC kit for the detection of apoptosis (BD, Franklin Lakes, NJ, USA) and immediately analyzed on a BD FACSCalibur using CellQuest software (BD, Franklin Lakes, NJ, USA). […]
incubated overnight at 37 °C and analyzed using an iMark Microp late absorbance reader (Bio-Rad, Hercules, CA, USA). Results were calculated relative to control cells treated with DMSO only.
[…] Stained cells were immediately analyzed on a BD FACSCalibur using CellQuest softwa re (BD, Franklin Lakes, NJ, USA). […]

[2] = Blood morphology in K562 xenograft mice; conditions: for GRA / MON / HGB / WBC / MPV / RBC / RDW / MCH / MCHC / HCT / MCV / LYMP: N=4; for GRA / MON / LYMP: standard range 0.0-99.0; for HGB: standard range 1.1-18; for WBC: standard range 3.0-15; for MPV: standard range 4.6-7.3; for RBC: standard range 5.0-12; for RDW: standard range 11.5-14.5; for MCH: standard range 12-24.5; for MCHC: standard range 21.6-42; for HCT: standard range 36-52; for MCV: standard range 44-69
Protocol: Eight-week-old female NOD.Cg-Prkdcscid Il2rgtm1Wjl/SzJ NSG mice (Jackson Laboratory, Bar Harbor, ME, USA) were injected subcutaneously into the dorsal fold with 1 × 10^6 K562 cells of the human chronic myeloid leukemia (CML) line in a final volume of 100 µL (0.5% of the mouse weight). On day 3 after cell administration, mice were randomly assigned to each group, and on days 4–17 of the experiment, the selected tested compounds and control solutions were administered intraperitoneally or orally. During the experiment, subcutaneous tumors and body weight were measured daily. Tumor growth during the experiment was measured with an electronic display caliper. The theoretical tumor volume [mm], was calculated according to the formula (a^2 × b) * 0.5, where a is the shorter tumor axis [mm] and b is the longer tumor axis [mm]. On day 26, the experiment was terminated: blood was collected and analyzed for cellular morphology and standard biochemistry metabolites. Tumors were weighed.
Control and treated mice were grouped according to the tested compounds and the scheme of their administrations (doses, administration frequencies, routes of administration) in the CML xenogeneic model obtained by subcutaneous transplantation of 1 × 10^6 cells of the human CML blast line K562 into mice NOD.Cg-Prkdcscid Il2rgtm1Wjl/SzJ (NSG).
Hydroxyurea K562 500 mg/kg, IP Aqua pro 1 x daily 8

K562 cells = assay: K562 xenogeneic mouse model, tumor growth; assay type: in vivo, NSG mice; conditions: for Tumor weights: mean ± SD, N=4, tumor growth control 9.2±2.1
Protocol: Statistical analysis was performed using GraphPad Prism version 9.1.0. All in vitro experiments were performed in at least triplicate biological replicates and statistical results are expressed as mean ± standard deviation (SD). Statistical data of animal experiments are expressed as mean ± standard error of the mean (SEM). For experiments involving patients, the normality of the distribution was checked using the Shapiro–Wilk test and the statistical analysis was performed using one-way ANOVA with Dunnett’s post-test * p < 0.05, ** […], *** 0.001 > p > 0.0001, **** p < 0.0001.
Table S3. […] Control and
IP, intraperitoneal administration; O, orally

[3] = Toxicity in Balb/c nude mice; assay type: in vivo
Protocol: […] The compound blood concentration was measured 15 min, 6, 12, and 24 h post-injection. For each time point, 4 mice were sacrificed. BK124.1 concentration in the bloodstream was analyzed using mass spectrometry. Toxicology was assessed by examining physiological and morphological changes at the injection site, the appearance of internal organs (liver, heart, kidneys, and spleen), blood tests, body mass, and animal behavior.

[4] = Pharmacokinetics in Wistar rats; assay type: in vivo, Wistar rat
Protocol: Five Wistar rats were injected intravenously (IV) with BK124.1 at 5 mg/kg or 10 mg/kg concentration, in 10% Solutol HS15/10% ethanol. The blood was taken from each animal after 5, 15, and 30 min, 1, 2, 6, and 24 h post-injection. Blood BK124.1 concentration was measured using mass spectrometry.

[5] = 20 mg/kg IP daily 14 days, mean ± SD
[6] = 30 mg/kg IP daily 14 days, mean ± SD
[7] = 30 mg/kg IP daily 14 days, mean

For `CCC12C(=O)C(CC)(C(c3ccccc3)=C1c1ccccc1)C1C(=O)N(CC(O)CNC(C)C)C(=O)C12` (stereo not drawn) [BK124.1, 4-[2-hydroxy-3-(propan-2-ylamino)propyl]-1,7-diethyl-8,9-diphenyl-4-azatricyclo [5.2.1.02,6]dec-8-ene-3,5,10-trione], the “Toxicity to normal cells” value (HUVEC) is listed as “non-toxic”, the viability at […] ([1]; 2.5 µM) is listed as 10% and the viability at 5 µM ([1]; 5 µM) is listed as 5%. For the same molecule, the GRA [2, 5] was 39.3±9.8%, the MON [2, 5] was 17.8±2.8% and the HGB [2, 5] was 12.3 ± 0.7 g/dL. For the same molecule, the WBC [2, 5] was 14.9±4.7 103/μL, the MPV [2, 5] was 5.0±0.2 μm3 and the RBC [2, 5] was 7.1±0.4 106/μL. The RDW [2, 5] was 13.1±0.4%, the MCH [2, 5] was 17.3 ± 0.3 pg and the MCHC [2, 5] was 32.4 ± 0.3 g/dL. For the same molecule, the HCT [2, 5] was 38.0±2.3%, the MCV [2, 5] was 53.3±0.5 and the LYMP ([2]; 20 mg/kg IP daily 14 days, mean) was 42.9%. The MON [2, 6] was 15.4±3.8%, the HGB [2, 6] was 13.5 ± 0.5 g/dL and the WBC [2, 6] was 10.5±5.0 103/μL. For the same molecule, the MPV [2, 6] was 5.1±0.2 μm3, the RBC [2, 6] was 7.9±0.2 106/μL and the RDW [2, 6] was 12.9±0.1%. For the same molecule, the MCH [2, 6] was 17.2 ± 0.4 pg, the MCHC [2, 6] was 32.4 ± 0.6 g/dL and the HCT [2, 6] was 41.7±0.9%. It also gave an MCV [2, 6] of 52.8±1.0, a GRA [2, 7] of 43.1% and an LYMP [2, 7] of 41.6%. For the same molecule, the Blood morphology parameters ([2]; doses as in Table S3) was “within the norm”, the Tumor weights (K562 cells; 20 mg/kg IP daily 14 days) was 1.6 ± 1.6 g and the Tumor weights (K562 cells; 30 mg/kg IP daily 14 days) was 1.9 ± 1.8 g. For the same molecule, the “Tumor growth versus control groups” value (K562 cells; BK124.1 20 or 30 mg/kg IP, imatinib 100 mg/kg orally, hydroxyurea 500 mg/kg IP, 1 x daily) was “effectively inhibited”, the Tumor volume (K562 cells; prolonged treatment (days 4-17), IP 20 or 30 mg/kg, comparable with hydroxyurea or imatinib) was “significant reduction in tumor volume” and the “Toxic effects in weight and internal organs' appearance” value ([3]; IP 40 mg/kg) was “some minor toxic effects”. The “Toxicity at the injection site” value ([3]; intravenous administration) was “some signs of local toxicity in the tail”, the “Time BK124.1 remains detectable in the peripheral blood” value ([4]; IV 10 mg/kg (Figure 1A)) was 24 h and the half-life ([4]; Wistar, rat, IV 10 mg/kg, blood) was 4.39 h.
